For one test, the target named is T1, ERCC1-XPF (Homo sapiens, UniProt P07992+Q92889).
T1 sequence (Q92889 1-916): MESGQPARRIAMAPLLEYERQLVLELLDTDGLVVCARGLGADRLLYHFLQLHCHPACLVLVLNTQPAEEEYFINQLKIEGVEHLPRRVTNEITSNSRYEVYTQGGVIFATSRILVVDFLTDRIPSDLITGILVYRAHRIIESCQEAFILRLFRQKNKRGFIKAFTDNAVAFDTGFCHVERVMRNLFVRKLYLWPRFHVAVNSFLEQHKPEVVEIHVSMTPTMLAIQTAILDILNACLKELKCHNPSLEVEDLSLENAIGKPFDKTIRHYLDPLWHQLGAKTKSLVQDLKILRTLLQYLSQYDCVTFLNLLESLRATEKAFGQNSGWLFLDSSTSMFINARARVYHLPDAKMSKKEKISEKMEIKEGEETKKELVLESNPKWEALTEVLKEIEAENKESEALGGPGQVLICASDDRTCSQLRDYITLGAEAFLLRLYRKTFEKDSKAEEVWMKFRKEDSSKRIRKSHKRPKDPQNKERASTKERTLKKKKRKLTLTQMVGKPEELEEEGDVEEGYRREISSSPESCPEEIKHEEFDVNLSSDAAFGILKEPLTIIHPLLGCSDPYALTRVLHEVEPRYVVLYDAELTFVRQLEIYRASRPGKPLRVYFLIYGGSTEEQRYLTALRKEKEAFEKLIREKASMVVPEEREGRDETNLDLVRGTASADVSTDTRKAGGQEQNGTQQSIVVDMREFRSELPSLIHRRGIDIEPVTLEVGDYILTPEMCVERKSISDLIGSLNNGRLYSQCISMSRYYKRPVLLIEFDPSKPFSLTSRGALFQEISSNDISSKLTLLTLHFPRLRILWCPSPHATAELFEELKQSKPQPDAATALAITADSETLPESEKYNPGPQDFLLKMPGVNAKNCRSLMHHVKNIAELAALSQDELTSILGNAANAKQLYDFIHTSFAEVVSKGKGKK
T1 sequence (P07992 1-297): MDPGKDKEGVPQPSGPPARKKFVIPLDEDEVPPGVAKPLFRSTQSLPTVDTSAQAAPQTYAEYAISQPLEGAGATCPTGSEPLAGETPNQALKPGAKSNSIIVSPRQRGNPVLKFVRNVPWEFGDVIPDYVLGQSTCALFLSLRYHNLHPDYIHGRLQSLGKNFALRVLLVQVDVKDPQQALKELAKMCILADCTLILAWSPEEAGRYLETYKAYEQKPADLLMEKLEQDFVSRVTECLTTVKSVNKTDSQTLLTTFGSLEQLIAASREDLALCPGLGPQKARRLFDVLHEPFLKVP
Description: radiolabeled DNA incision assay (radiometric inhibition assay). The test is classed as biochemical. The conditions noted are these: read-out: 50% inhibition in radiometric inhibition assay. The protocol: (§1) For at least one reason, the lead compound was selected based on having nanomolar potency in the fluorescence assay (FIG. 2) and having the best response in enhancing cisplatin efficacy in cell culture models. Titration of lead compound in the ERCC1-XPF fluorescence assay yields an IC50 value of 400-500 nM (FIG. 2).
(§2) The synthesized compounds were tested in the in vitro fluorescence incision assay and radiolabeled DNA incision assay for potency and selectivity against ERCC1-XPF. These assays are based on forked synthetic DNA substrates and purified enzyme. The fluorescent DNA substrate is designed such that a fluorophore (Fl) is incorporated into the top DNA strand while a quencher (Q) molecule is incorporated in the bottom DNA strand and in close proximity to the Fl (FIG. 5).

The target in another test is T2, ERCC1-XPF endonuclease (Homo sapiens, UniProt P07992+Q92889).
T2 sequence (Q92889 1-916): T1 sequence (Q92889 1-916)
T2 sequence (P07992 1-297): T1 sequence (P07992 1-297)
Description: fluorescence based DNA incision assay with purified ERCC1-XPF. The conditions noted are these: purified enzyme, forked fluorescent DNA substrate. The test is classed as biochemical.
Excerpt: Described herein is a robust fluorescence based incision assay which was used to initially screen a diverse drug library (˜2,000 compounds) in order to identify inhibitors of the ERCC1-XPF endonuclease. From the initial screen, five (5) small molecule Hits were identified that inhibited ERCC1-XPF nuclease activity with micromolar to nanomolar potency.
as §1, §2
When the DNA substrate is annealed, the Q quenches the fluorescent signal and results in low background fluorescence. […]

The subject of a further test is cell culture. Description: enhancement of cisplatin efficacy in cell culture. The test is classed as cell-based. An excerpt:
The Tosyl adduct is necessary for compound 1's ability to enhance cisplatin activity and inhibit DNA repair. Without this functionality, no activity in cell culture was observed. Derivatives synthesized in Pathways B and C, take further advantage of the Tosyl functional group, including the sulfonate linkage itself. Pathway B focuses on varying the substitution on the toluene ring. By substitution of the methyl substituent with hydrogen (3a), as well as a halogen (3c) or a propyl group (3d), steric tolerance is adjusted at this position. Alternatively, addition of a heteroatom within the aromatic ring, whether it is an oxygen (3e) or a nitrogen (3f), has little effect upon the steric environment but alters the electronic nature of this key substituent. Removal of the aromatic ring and replacement with an alkene (3b) encompasses both the steric and electronic features at this position. Pathway C exemplifies compounds with differing linkers to the tosyl moiety, namely substitution of the sulfonate as a thioether (4a), sulfoxide (4b), ester (4c), and ether (4d) or amine (4e).

Test [1] has as its system cisplatin resistant ovarian cancer cell line (2008/C13*5.25). Description: colony survival with cisplatin IC50 concentration, lead compound titrated (Combination Factor). The test is classed as cell-based. The conditions noted are these: 2008/C13*5.25, colony survival. The protocol:
(§3) Cells were treated with the cisplatin IC50 concentration while the lead compound was titrated into the experiment, and colony survival assessed. The Combination Factor is the concentration of lead compound that is required to enhance cisplatin IC50 values by 2-fold.

In test [2] the test system is lung cancer cell line (H460). Described as above. The test is classed as cell-based. The method, then: as §3
The subject of test [3] is 2008/C13*5.25 (resistant) ovarian cancer cell line. Description: colony survival after ERCC1-XPF siRNA and cisplatin treatment. The test is classed as cell-based. The conditions noted are these: control siRNA; 2008/C13*5.25 vs 2008. An excerpt: FIG. 1: Colony survival in matched ovarian cancer cell lines. 2008 (sensitive, squares) and 2008/C13*5.25 (resistant, circles) ovarian cancer cell lines were transfected with control or ERCC1-XPF siRNA and subjected to cisplatin treatment. IC50 values are indicated.
In order to assess whether ERCC1-XPF influences cisplatin resistance in ovarian cancer cell lines, a matched set of parental sensitive (2008s) and daughter resistant cell lines (2008/C13*5.25) were obtained. These are well characterized cell lines for assessing cisplatin resistance and effects in ovarian cancer.
Following greater than 90% ERCC1-XPF knockdown (data not shown), the resistant daughter cell line has a nearly 5-fold change in cisplatin sensitivity, making the cells as sensitive as the parental sensitive cell line (compare open circles with filled squares).

Structures are written as SMILES. Where two headings read alike, the source gives them in different places.

With `Cc1ccc(S(=O)(=O)Oc2cc(S(=O)(=O)O)cc3cc(S(=O)(=O)O)cc(N)c23)cc1` [compound 1], the IC50 at ERCC1-XPF is 0.4 to 0.5 µM; at ERCC1-XPF endonuclease (read-out: IC50 (50% inhibition) in ERCC1-XPF fluorescence assay), 0.4 to 0.5 µM; in the test with cell culture (with cisplatin, cell line not stated, read-out: enhancing cisplatin efficacy in cell culture (IC50)), 4 µM. Moreover, the results for the “Combination Factor: concentration of lead compound required to enhance cisplatin IC50 values by 2-fold” value in test [1] and in test [2] were “low micromolar range” and 7 to 8 µM, respectively.
For the molecule `N.N.[Cl][Pt][Cl]` [cisplatin], in test [3], the “fold resistance to cisplatin, comparing IC50 values to the parental sensitive cell line” value was roughly 4 fold.
As for `COc1cc(S(=O)(=O)O)cc2cc(S(=O)(=O)O)cc(N)c12` [boxed portion of the molecule, reference compound], the IC50 on ERCC1-XPF endonuclease (read-out: 50% fluorescent inhibition in the fluorescence incision assay) is 3.2 to 3.6 µM. Further, the “effect in cell culture” value in the test on cell culture (data not shown) is reported as “no effect”.
